Measurements published in patent US20240277743A1, “RESTORING PHYSIOLOGY WITH SMALL MOLECULE MIMICS OF MISSING PROTEINS” (The Board of Trustees Of The University Of Illinois, priority 2014, published 2024).

Experiments:
trk1Δtrk2Δ S. cerevisiae = experiment: Growth of trk1Δtrk2Δ yeast on normal potassium YPAD agar plates containing AmB; format: cell-based, Saccharomyces cerevisiae; conditions: 125 nM in agar, normal potassium (10 mM)
Procedure: Yeast cell lines and growth conditions. Wild type S. cerevisiae (ATCC 9763), and trk1Δtrk2Δ S. cerevisiae (SGY 1528) were maintained with yeast peptone adenine dextrose (YPAD) growth media consisting of 10 g/L yeast extract, 20 g/L peptone, 20 g/L dextrose, 0.015 g/L adenine hemisulfate salt (final potassium concentration=10 mM). For solid media, 20 g/L agar was added to this same mixture. To culture trk1 Δtrk2Δ S. cerevisiae, additional potassium was added as potassium chloride (100 mM KCl). The media was adjusted to pH 5.0 using citric acid. After autoclave sterilization, dextrose was subsequently added as a sterile 20% w/v solution in water (dextrose solutions were filter-sterilized using a 0.22 μm filter). Liquid cultures were incubated at 30° C. on a rotary shaker (200 rpm). Solid cultures were maintained at 30° C. in an incubator. For solid media containing AmB (AK Scientific), the media was allowed to cool for 15 minutes before addition of AmB at a final concentration of 125 nM. AmB was added to the media as a solution in DMSO. Plates were examined for growth after 24-48 hours of incubation.

trk1Δtrk2Δ cells = experiment: Disc diffusion assay of growth rescue; format: cell-based, Saccharomyces cerevisiae; conditions: paper disc impregnated with AmB; FIG. 2C
Procedure: Disc diffusion assay. The assay was performed as previously described. National Committee for Clinical Laboratory Standards in Performance Standards for Antimicrobial Disk Susceptibility Tests; M2-A8 Approved Standard (NCCLS, Wayne) (2003).

wild type S. cerevisiae = experiment: Growth of wild type cells treated with AmB; format: cell-based, Saccharomyces cerevisiae
Excerpt: Broth microdilution minimum inhibitory concentration (MIC) assay. The protocol for the MIC broth microdilution assay was adapted from the Clinical and Laboratory Standards Institute document M27-A2 and performed as previously described. Gray, K. C. et. al. Proc. Natl. Acad. Sci. U.S.A. 109, 2234-2239 (2012); Palacios, D. S. et al. J. Am. Chem. Soc. 129, 13804-13805 (2007).
Functional complementation of a protein with a small molecule assay. The protocol for the rescue broth microdilution assay was conducted as described in the MIC assay above with the following additions: trk1atrk2Δ yeast were grown in high potassium (100 mM) YPAD liquid media overnight and transferred to normal potassium YPAD liquid media containing vehicle or the indicated concentration of AmB.

trk1Δtrk2Δ yeast = experiment: Sustainable restoration of cell growth assay (max OD600, doubling time); format: cell-based, Saccharomyces cerevisiae
Procedure: Sustainable restoration of cell growth assay. Wild type and trk1 Δtrk2Δ yeast were treated as described in the functional complementation experiment described above, with the trk1 Δtrk2Δ yeast treated with 125 nM AmB. The OD600 was measured every hour for 24 hours, including a reading at time zero. Wild type yeast were then streaked onto normal potassium YPAD agar plates and AmB-rescued TrklAtrk2Δ yeast were streaked onto AmB-containing (0.125 μM) normal potassium YPAD agar plates. These agar plates were then incubated at 30° ° C. for about 48 hours. The same procedure was then repeated for over 42 days, measuring the max OD600 and doubling time every three days. Doubling time was determined using the following equation: Td=(t2−t1)×[log(2)/log (q2/q1)], where t2 and t1 represent the time at the two points and q2 and q1 represent the OD600 values in the exponential phase of growth (OD600 from 0.2 to 0.6).

[1] = tested on: CuFi-1 epithelial monolayers (CFTR-deficient human lung epithelia); experiment: Airway surface liquid (ASL) height studies by confocal fluorescence microscopy; format: cell-based
Procedure: Human cell lines and growth conditions. NuLi and CuFi-1 cells were cultured at the air-liquid interface as previously described, using a 1:1 mixture of DMEM: Ham's F-12 supplemented with 2% v/v Ultroser G (Crescent Chemical). Zabner, J. et al. Am. J. Physiol. Lung Cell. Mol. Physiol. 284, […]-[…] (2003). The membrane supports used were Millicell 0.4 μm PCF inserts (Millipore PIHP01250) for Ussing chamber studies, Corning Costar 0.4 μm Transwell Clear Polyester Membrane inserts (Corning 3470) for rotational mucus transport studies, and Millicell 1.0 μm PCF inserts (Millipore PIRP15R48) for ASL studies. These membranes were allowed to mature at an air-liquid interface for a minimum of 14 days to reach full differentiation. Airway surface liquid (ASL) height studies. ASL height was studied using an established fluorescent dye assay. Worthington, E. N. et al. Methods Mol. Biol. 742, 77-92 (2011); Myerburg. M. M. et al. Am. J. Respir. Cell. Mol. Biol. 42, 676-684 (2010). Mature, differentiated membranes were grown on Millicell […] polyethylene terephthalate hanging cell culture inserts. Wild type (NuLi) lung epithelia were treated with perfluorocarbon (FC-72) vehicle, and CuFi epithelia were treated with vehicle or 500 nM AmB and incubated for 24 hours at 37° ° C. On the day of imaging. 2.5 μL of a 70 kDa Texas Red-dextran conjugate (Molecular Probes) solution in PBS was added to the apical side of the membranes, followed by 100 μL of FC-770 to prevent evaporation. These were placed on 100 μL of PBS on a 10 mm glass bottom Fluorodish for imaging (World Precision Instruments). Membranes were imaged immediately after dye addition and again at 24 hours to examine dye absorption. Three Z-stack images per membrane in biological n=6 were taken on an Zeiss LSM700 confocal microscope at 40× oil immersion. These images were analyzed using ImageJ to determine the area of fluorescence in the left hand 200-micron width of each image. Images were converted to 8-bit, Gaussian Blur was applied, and made binary. The parameters for Analyze Particles were particles from 1-Infinity μm^2 in size and from 0%-100% circularity.

C[C@@H]1[C@H](O)[C@@H](C)/C=C/C=C/C=C/C=C/C=C/C=C/C=C/[C@H](O[C@@H]2O[C@H](C)[C@@H](O)[C@H](N)[C@@H]2O)C[C@@H]2O[C@](O)(C[C@@H](O)C[C@@H](O)[C@H](O)CC[C@@H](O)C[C@@H](O)CC(=O)O[C@H]1C)C[C@H](O)[C@H]2C(=O)O [AmB, amphotericin B]
restoration of growth of the trk1Δtrk2Δ mutant on agar plate (trk1Δtrk2Δ S. cerevisiae): restored vigorous growth
growth rescue in disc diffusion assay (trk1Δtrk2Δ cells): dependence of the growth rescue on the concentration of AmB
growth stimulatory effects on wild type cells (wild type S. cerevisiae): no growth stimulatory effects
doubling time of AmB-rescued trk1Δtrk2Δ cells relative to wild type (trk1Δtrk2Δ yeast; 125 nM AmB): 1.7 times longer
sustainability of cell growth of AmB-rescued trk1Δtrk2Δ cells (trk1Δtrk2Δ yeast; 125 nM AmB, passed every 3 days for over a month, FIG. 2I): sustained, vigorous cell growth
maximum cell density (max OD600) of treated trk1Δtrk2Δ cells (trk1Δtrk2Δ yeast; liquid culture after 24 h, versus wild type, FIG. 2G): matched that of the wild type
apical surface liquid (ASL) volume of CF epithelia ([1]; 500 nM): normal ASL volume was restored
ASL height of CuFi-1 epithelia, compound added apically ([1]; 500 nM AmB, 24 hours, FIGS. 5A, 5B): normal ASL height was restored
dose dependence of ASL restoration ([1]; CuFi-1 epithelia, FIG. 5C): dose-dependent fashion
optimal dose for ASL restoration ([1]; CuFi-1 epithelia, FIG. 5C): 0.5 µM
ASL height of CuFi-1 epithelia, compound added to the basolateral surface ([1]; FIG. 5B): no increase in ASL height
